# Target: hSTING(R232) (Homo sapiens, UniProt Q86WV6, H232R)
# Test: Luciferase reporter assay in HEK293T-hSTING-Luciferase cells, R232 (wild type) human STING
# Type: cell-based
# Conditions: 20 hr stimulation, read-out: R232 human activity (EC50 range)
# From the text: Stable Cell Line Generation • a) Stable STING expressing cells—Stable HEK293T STING-expressing cell lines were generated using plasmids purchased from Invivogen, CA, USA, that contain STING cDNA cloned into the pUNO-1 vector under hEF1-HTLV promoter and containing the Blasticidin selection cassette. The plasmids hSTING(R232), hSTING(H232), hSTING(HAQ) were directly procured from Invivogen while hSTING (AQ) and hSTING (Q) were derived from hSTING(HAQ) and hSTING (R232) plasmids respectively by using a PCR based site directed mutagenesis method. These vectors were individually transfected into HEK293T cells using Lipofectamine (Invitrogen) and transfected cells were selected under Blasticidin selection. These transfected cells were further subjected to clonal selection using the limiting dilution method to obtain clonally pure populations of HEK cells transfected with each of the above mentioned human STING variants. Only those clones were selected in which ligand independent activation of STING was minimal. • b) Stable Luciferase reporter gene expressing cells—Stable HEK293T Luciferase reporter gene expressing cell lines were generated using pCDNA4 plasmids under an IRF-inducible promoter. This promoter is comprised of five tandem interferon-stimulated response elements (ISRE) fused to an ISG54 minimal promoter. This vector was transfected into HEK293T cells using Lipofectamine (Invitrogen) and transfected cells were selected under Zeocin selection. These transfected cells were further subjected to clonal selection using the limiting dilution method to obtain clonally pure populations of HEK cells transfected the Luciferase reporter construct. Only those clones were selected in which ligand independent induction of luciferase was minimal.
# 5×10^5 clonally selected HEK293T-hSTING-Luciferase cells were seeded in 384-well plates in growth medium and stimulated with novel compounds. After 20 hr of stimulation supernatant were removed and secretary reporter gene activity were measured using the Quanti-Luc detection system (Invivogen) on a Spectramax i3X luminometer.
# In the tables below, EC50 value ranges for exemplary compounds are given.
# All compounds were first tested in a primary screen to obtain a ‘fold-induction’ over baseline levels of protein activity.
# hSTING(R232), sequence (Q86WV6 whole entry H232R): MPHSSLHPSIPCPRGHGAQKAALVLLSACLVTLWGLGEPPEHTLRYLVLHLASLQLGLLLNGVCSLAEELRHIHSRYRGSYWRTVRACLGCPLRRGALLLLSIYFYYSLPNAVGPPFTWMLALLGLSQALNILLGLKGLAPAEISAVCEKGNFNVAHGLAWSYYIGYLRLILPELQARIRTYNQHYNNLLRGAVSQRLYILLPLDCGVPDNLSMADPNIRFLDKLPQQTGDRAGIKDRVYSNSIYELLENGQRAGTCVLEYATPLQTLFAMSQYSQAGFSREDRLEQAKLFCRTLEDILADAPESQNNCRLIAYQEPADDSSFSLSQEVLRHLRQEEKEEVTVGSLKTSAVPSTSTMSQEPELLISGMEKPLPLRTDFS
row,SMILES,EC50
1,"CN1Cc2ccc(C(=O)NCc3c(F)cc(F)cc3F)cc2N(Cc2c(F)cccc2C(F)(F)F)C1=O [Example 56, 1-(2-fluoro-6-(trifluoromethyl)benzyl)-3-methyl-2-oxo-N-(2,4,6-trifluorobenzyl)-1,2,3,4-tetrahydroquinazoline-7-carboxamide]",1 to 10 µM
2,"Cc1cc(CN2C(=O)N(C)Cc3ccc(C(=O)NCc4c(F)cc(F)cc4F)cc32)nn1C [Example 57, l-((l,5-dimethyl-1H-pyrazol-3-yl)methyl)-3-methyl-2-oxo-N-(2,4,6-trifluorobenzyl)-1,2,3,4-tetrahydroquinazoline-7-carboxamide]",> 10 µM
3,"CN1Cc2ccc(C(=O)NCc3cc4cc(N)ccc4o3)cc2N(Cc2c(F)cccc2Cl)C1=O [Example 58, N-((5-aminobenzofuran-2-yl)methyl)-1-(2-chloro-6-fluorobenzyl)-3-methyl-2-oxo-1,2,3,4-tetrahydroquinazoline-7-carboxamide]",> 10 µM
4,"CN1Cc2ccc(C(=O)NCc3ccc4c(c3)CC(=O)N4)cc2N(Cc2c(F)cccc2Cl)C1=O [Example 59, 1-(2-chloro-6-fluorobenzyl)-3-methyl-2-oxo-N-((2-oxoindolin-5-yl)methyl)-1,2,3,4-tetrahydroquinazoline-7-carboxamide]",> 10 µM
5,"COc1cc(F)c(CNC(=O)c2ccc3c(c2)N(Cc2c(F)cccc2Cl)C(=O)N(C)C3)c(F)c1 [Example 60, 1-(2-chloro-6-fluorobenzyl)-N-(2,6-difluoro-4-methoxybenzyl)-3-methyl-2-oxo-1,2,3,4-tetrahydroquinazoline-7-carboxamide]",1 to 10 µM
6,"COc1cc(F)ccc1CNC(=O)c1ccc2c(c1)N(Cc1c(F)cccc1Cl)C(=O)N(C)C2 [Example 61, 1-(2-chloro-6-fluorobenzyl)-N-(4-flnoro-2-methoxybenzyl)-3-methyl-2-oxo-1,2,3,4-tetrahydroquinazoline-7-carboxamide]",> 10 µM
7,"CN1Cc2ccc(C(=O)NCc3c(F)cc(F)cc3F)cc2N(Cc2c(Cl)cccc2Cl)C1=O [Example 62, l-(2,6-dichlorobenzyl)-3-methyl-2-oxo-N-(2,4,6-trifluorobenzyl)-1,2,3,4-tetrahydroquinazoline-7-carboxamide]",1 to 10 µM
8,"COc1cccc(CN2C(=O)N(C)Cc3ccc(C(=O)NCc4c(F)cc(F)cc4F)cc32)c1F [Example 63, 1-(2-fluoro-3-methoxybenzyl)-3-methyl-2-oxo-N-(2,4,6-trifluorobenzyl)-1,2,3,4-tetrahydroquinazoline-7-carboxamide]",1 to 10 µM
9,"CN1Cc2ccc(C(=O)NCc3c(F)cc(F)cc3F)cc2N(Cc2cc(C3CC3)no2)C1=O [Example 64, 1-((3-cyclopropylisoxazol-5-yl)methyl)-3-methyl-2-oxo-N-(2,4,6-trifluorobenzyl)-1,2,3,4-tetrahydroquinazoline-7-carboxamide]",> 10 µM
10,"CN1Cc2ccc(C(=O)NCc3c(F)cc(F)cc3F)cc2N(Cc2cn3ccccc3n2)C1=O [Example 65, 1-(imidazo[1,2-a]pyridin-2-ylmethyl)-3-methyl-2-oxo-N-(2,4,6-trifluorobenzyl)-1,2,3,4-tetrahydroquinazoline-7-carboxamide]",> 10 µM
11,"Cc1ccc(Cl)c(CN2C(=O)N(C)Cc3ccc(C(=O)NCc4c(F)cc(F)cc4F)cc32)c1F [Example 66, 1-(6-chloro-2-fluoro-3-methylbenzyl)-3-methyl-2-oxo-N-(2,4,6-trifluorobenzyl)-1,2,3,4-tetrahydroquinazoline-7-carboxamide]",< 1 µM
12,"Cc1nn(C)c(CN2C(=O)N(C)Cc3ccc(C(=O)NCc4c(F)cc(F)cc4F)cc32)c1Br [Example 67, 1-((4-bromo-1,3-dimethyl-1H-pyrazol-5-yl)methyl)-3-methyl-2-oxo-N-(2,4,6-trifluorobenzyl)-1,2,3,4-tetrahydroquinazoline-7-carboxamide]",1 to 10 µM
13,"O=C(NCc1c(F)cc(F)cc1F)c1ccc2c(c1)N(Cc1c(F)cccc1Cl)C(=O)N(OCc1ccccc1)C2 [Example 68, 3-(benzyloxy)-1-(2-chloro-6-fluorobenzyl)-2-oxo-N-(2,4,6-trifluorobenzyl)-1,2,3,4-tetrahydroquinazoline-7-carboxamide]",> 10 µM
14,"O=C(NCc1c(F)cc(F)cc1F)c1ccc2c(c1)N(Cc1c(F)cccc1Cl)C(=O)N(O)C2 [Example 69, 1-(2-chloro-6-fluorobenzyl)-3-hydroxy-2-oxo-N-(2,4,6-trifluorobenzyl)-1,2,3,4-tetrahydroquinazoline-7-carboxamide]",> 10 µM
15,"CN1Cc2ccc(C(=O)NCc3c(F)cc(F)cc3F)cc2N(Cc2cc(F)cc(F)c2)S1(=O)=O [Example 70, 1-(3,5-difluorobenzyl)-3-methyl-N-(2,4,6-trifluorobenzyl)-3,4-dihydro-1H-benzo[c][1,2,6]thiadiazine-7-carboxamide 2,2-dioxide]",1 to 10 µM
16,"CN1Cc2ncc(C(=O)NCc3c(F)cc(F)cc3F)cc2N(Cc2c(F)cccc2Cl)C1=O [Example 71, 1-(2-chloro-6-fluorobenzyl)-3-methyl-2-oxo-N-(2,4,6-trifluorobenzyl)-1,2,3,4-tetrahydropyrido[3,2-d]pyrimidine-7-carboxamide]",1 to 10 µM
17,"CN1Cc2ncc(C(=O)NCc3c(F)cc(F)cc3F)cc2N(Cc2cc(F)cc(F)c2)C1=O [Example 72, 1-(3,5-difluorobenzyl)-3-methyl-2-oxo-N-(2,4,6-trifluorobenzyl)-1,2,3,4-tetrahydropyrido[3,2-d]pyrimidine-7-carboxamide]",1 to 10 µM
18,"CN1Cc2ncc(C(=O)NCc3cc4ccccc4o3)cc2N(Cc2c(F)cccc2Cl)C1=O [Example 73, N-(benzofuran-2-ylmethyl)-1-(2-chloro-6-fluorobenzyl)-3-methyl-2-oxo-1,2,3,4-tetrahydropyrido[3,2-d]pyrimidine-7-carboxamide]",> 10 µM
19,"C[C@H]1c2ccc(C(=O)NCc3c(F)cc(F)cc3F)cc2N(Cc2c(OCCOP(=O)(O)O)ccc(F)c2F)C(=O)N1C [Example 91, (S)-2-(2-((3,4-dimethyl-2-oxo-7-((2,4,6-trifluorobenzyl)carbamoyl)-3,4-dihydroquinazolin-1(2H)-yl)methyl)-3,4-difluorophenoxy)ethyl dihydrogen phosphate]",< 1 µM
20,"C[C@H]1c2ccc(C(=O)NCc3c(F)cc(F)cc3F)cc2N(Cc2ccc(OP(=O)(O)O)cc2F)C(=O)N1C [Example 92, (S)-4-((3,4-dimethyl-2-oxo-7-((2,4,6-trifluorobenzyl)carbamoyl)-3,4-dihydroquinazolin-1(2H)-yl)methyl)-3-fluorophenyl dihydrogen phosphate]",< 1 µM
21,"C[C@H]1c2ccc(C(=O)NCc3ccc(F)cc3OP(=O)(O)O)cc2N(Cc2c(F)cccc2Cl)C(=O)N1C [Example 93, (S)-2-((1-(2-chloro-6-fluorobenzyl)-3,4-dimethyl-2-oxo-1,2,3,4-tetrahydroquinazoline-7-carboxamido)methyl)-5-fluorophenyl dihydrogen phosphate]",< 1 µM
22,"C[C@H]1c2ccc(C(=O)NCc3c(F)cc(F)cc3F)cc2N(Cc2c(OP(=O)(O)O)ccc(F)c2F)C(=O)N1C [Example 99, (S)-2-((3,4-dimethyl-2-oxo-7-((2,4,6-trifluorobenzyl)carbamoyl)-3,4-dihydroquinazolin-1(2H)-yl)methyl)-3,4-difluorophenyl dihydrogen phosphate]",1 to 10 µM
23,"C[C@H]1c2ccc(C(=O)NCc3c(F)cc(F)cc3F)cc2N(Cc2c(F)ccc(OCCCOP(=O)(O)O)c2F)C(=O)N1C [Example 104, (S)-3-(3-((3,4-dimethyl-2-oxo-7-((2,4,6-trifluorobenzyl)carbamoyl)-3,4-dihydroquinazolin-1(2H)-yl)methyl)-2,4-difluorophenoxy)propyl dihydrogen phosphate]",< 1 µM
24,"C[C@H]1c2ccc(C(=O)NCc3c(F)cc(F)cc3F)cc2N(Cc2c(F)ccc(OC(=O)N(C)CCC(=O)OCc3ccccc3)c2Cl)C(=O)N1C [Example 140, (S)-Benzyl 3-((2-chloro-3-((3,4-dimethyl-2-oxo-7-((2,4,6-trifluorobenzyl)carbamoyl)-3,4-dihydroquinazolin-1(2H)-yl)methyl)-4-fluorophenoxy)carbonyl)(methylamino)propanoate]",> 10 µM
25,"C[C@H]1c2ccc(C(=O)NCc3c(F)cc(F)cc3F)cc2N(Cc2c(F)ccc(C(=O)O)c2F)C(=O)N1C [Example 142, (S)-3-((3,4-Dimethyl-2-oxo-7-((2,4,6-trifluorobenzyl)carbamoyl)-3,4-dihydroquinazolin-1(2H)-yl)methyl)-2,4-difluorobenzoic acid]",> 10 µM
26,C[C@H]1c2ccc(C(=O)NCc3c(F)cc(F)cc3F)cc2N(Cc2c(F)ccc(C(=O)NCCO)c2F)C(=O)N1C [Example 143],< 1 µM
27,"C[C@H]1c2ccc(C(=O)NCc3c(F)cc(O)cc3F)cc2N(Cc2c(F)cc(O)cc2F)C(=O)N1C [Example 150, (S)—N,1-bis(2,6-Difluoro-4-hydroxybenzyl)-3,4-dimethyl-2-oxo-1,2,3,4-tetrahydroquinazoline-7-carboxamide]",< 1 µM
